In one experiment the test system is HIV-1 Clade D. Briefly: XTT cytopathicity assay, HIV-1 clade. Format: cell-based. As to conditions: CEM-SS. The protocol:
(§1) Initial anti-HIV screening was performed with CEM-SS cells and HIV-1RFusing the XTT cytoprotection assay as previously described (Weislow et al., J. National Cancer Inst. 81: 577-586, (1989)). HIV-1 isolates included common laboratory stains (RF, IIIB and MN), as well as a panel of HIV-1 clinical isolates (Cushman et al., J. Med. Chem. 37: 3040-3050, (1994)). The pyridone-resistant HIV-1A17 isolate (Nunberg et al., J. Virol., 65: 4887-4892 (1991)) was obtained from Emilio Emini at Merck Sharpe and Dohme Laboratories. Phytohemagglutinin-stimulated human peripheral blood lymphocytes (PBLs) and fresh monocyte-macrophage (Mono/MF) cultures were prepared and utilized in antiviral assays as previously described (Rice et al., Proc. Nat'l. Academy Science, USA 90: 9721-9724, (1993)); (Cushman et al., J. Med. Chem. 37: 3040-3050, (1994)). EC50 values for these cultures indicate the drug concentration that provided a 50% reduction in viral p24 production. […] The compounds can be synthesized according to the teachings of Singh et al., Sulfur Letters 8: 107-114, (1988). The 4,5-cis-dihydroxy(1,1-dioxy-1,2,-dithiohexane) compound (NSC 624151) has been abbreviated as 624151 for convenience. MT-2, MT-4, U1, HeLa-CD4-LTR-β-gal and 174xCEM cells were obtained from the AIDS Research and Reference Program (National Institute of Allergy and Infectious Disease, National Institutes of Health, Bethesda, Md. USA), as were the HIV-2MS and the AZT-resistant HIV-1G910-6 isolates.
(§2) ^a Anti-HIV studies utilizing lymphocytederived cell lines were
(§3) performed using the XTT cytopathicity assay, while antiviral assays
On the technique in general: Tetrazolium assays rely on reduction of a dye to a coloured formazan, in cell work by metabolically active cells.

The subject of the next experiment is HIV-1 Clade B. Briefly: XTT cytopathicity assay, HIV-1 clade. As to conditions: CEM-SS. It is filed as cell-based. How it is done:
as §1, §2, §3

In another experiment the test system is HIV-1 Clade A. Briefly: XTT cytopathicity assay, HIV-1 clade. Format: cell-based. The note with it: CEM-SS. The protocol: as §1, §2, §3
The subject of a further experiment is HIV-1 Clade C. Briefly: XTT cytopathicity assay, HIV-1 clade. It is filed as cell-based. The note with it: CEM-SS. The protocol:
as §1, §2, §3

In a further experiment the test system is HIV-1 Clade F. Briefly: XTT cytopathicity assay, HIV-1 clade. Format: cell-based. As to conditions: CEM-SS. How it is done: as §1, §2, §3
For experiment [1], the system named is monocyte-macrophage (Mo/M.PHI.) cultures. Briefly: cytotoxicity in monocyte-macrophage cultures. It is filed as cell-based. The protocol:
as §1

For experiment [2], the system named is HIV-1 from latently infected U1 cells. Briefly: virus production from TNF-α stimulated latently infected U1 cells. Format: cell-based. As to conditions: FIG. 3(A); for formation of infectious virus from infected cells: in words. The protocol: (§4) U1 cells latently infected with two copies of HIV-1 proviral DNA per cell (Clous et al., J. Immunol. 142: 431-438, (1989)) were treated with 5 ng/ml tumor necrosis factor-α(TNF-α) for 24 hours to stimulate production of HIV-1 virions, after which various concentrations of 624151 were added to the cultures and incubated for an additional 48 hours. Cultures were analyzed for cell viability by the XTT reduction assay and cells were counted and scored for viability by trypan blue exclusion. Cells pellets were lysed (0.5% Triton X-100, 300 mM NaCl, 50 mM Tris-HCl, pH 7.6, 10 μg/ml each of Leupeptin and aprotinin (Boehringer Mannheim), 1.8 mg/ml iodoacetamide (Sigma Chemical Co., St. Louis, Mo.) and 1.0 mg/ml the protease inhibitor Pefabloc SC (Boehringer Mannheim at 4° C. for 15 min. and then quantitated for viral p24 content by ELISA. Cell-free supernatant samples were collected and analyzed for virus content by p24 ELISA, and infectivity in cultures of 174xCEM cells. Briefly, serial 1/2 dilutions of the supernatant were placed with 5×10^3 174xCEM cells and cultured for 7 days, cell supernatants were analyzed for viral p24 content, and the number of infectious units/ml calculated. In addition, cell free supernatants were centrifuged at 17,000×g for 1 hour at 4° C. to collect virion pellets. Proteins from both the virion and cellular lysates were separated by 4-20% SDS-PAGE (50 μg protein per lane), blotted onto PVDF membranes, reacted with anti-p7 and anti-p24 antisera, and then probed with HRP-conjugated goat anti-rabbit IgG and subsequently viewed with Western Blot Chemiluminescence Reagent (Dupont NEN, Wilmington, Del.).
Once proviral DNA has integrated into the cellular DNA, compounds that act on replicative events during the pre-integrative phase of infection are without effect. However, the zinc fingers as a part of the Pr55^gag and Pr160^gag-pol participate in the post-integrative phase production of progeny infectious virions, and the zinc finger-reactive 624151 should affect those functions. To test this possibility, we evaluated the effects of 624151 on cell viability and the production of viral proteins and infectious virions from U1 cells that latently harbor two copies of HIV-1 proviral DNA. Stimulation of U1 cells with TNF-α results in the production of high levels of p24 and infectious virions.

Another experiment deals with HIV-1RF. Briefly: effect of increasing multiplicity of infection, CEM-SS cells. It is filed as cell-based. The note with it: for EC50: Human immunodeficiency virus 1, CEM-SS. The protocol: as §1
Another experiment deals with Pr55^gag. Briefly: immunoblot of viral proteins in U1 cells (Gag precursor processing). It is filed as cell-based, HIV-1. The note with it: FIG. 3(B), in words. The protocol:
as §4, with “Proteins from both the virion and cellular lysates were separated by 4-20% SDS-PAGE (50 μg protein per lane), blotted onto PVDF membranes, reacted with anti-p7 and anti-p24 antisera, and then probed with HRP-conjugated goat anti-rabbit IgG and subsequently viewed with Western Blot Chemiluminescence Reagent (Dupont NEN, Wilmington, Del.).” left out
(A western blot detects proteins with antibodies after separation by electrophoresis.)

The test system of another experiment is HIV-1 SK1. Briefly: XTT cytopathicity assay, SK1. The note with it: Human immunodeficiency virus 1, CEM-SS. It is filed as cell-based. How it is done:
as §1, with “MT-2, MT-4, U1, HeLa-CD4-LTR-β-gal and 174xCEM cells were obtained from the AIDS Research and Reference Program (National Institute of Allergy and Infectious Disease, National Institutes of Health, Bethesda, Md. USA), as were the HIV-2MS and the AZT-resistant HIV-1G910-6 isolates.” left out

By EC50 is commonly meant the midpoint of the concentration-response curve. A word on the IC50: it is the point on the concentration scale where inhibition reaches its midpoint.

Take `O=S1(=O)C[C@H](O)[C@H](O)CS1` (relative stereo) [NSC 624151, cis-1,1-dioxo[1,2]dithiane-4,5-diol]: the EC50 in the experiment with HIV-1 Clade D came to 20 µM; with HIV-1 Clade B, 5.5 µM; in the experiment with HIV-1 Clade A, 22 µM; in the experiment with HIV-1 Clade C it was 2.9 µM; with HIV-1 Clade F, 69 µM; with HIV-1RF (MOI 0.01), 8.4 µM. Moreover, the EC50 came out at 17.1 µM with HIV-1RF (MOI 0.02); 16.8 µM in the experiment with HIV-1RF (MOI 0.04); 27.7 µM in the experiment with HIV-1RF (MOI 0.08); 21.3 µM in the experiment on HIV-1RF (MOI 0.16); 21 µM with HIV-1RF (MOI 0.32); 22.7 µM with HIV-1 SK1. Moreover, the IC50 in [1] is over 100 µM. Further, the “formation of infectious virus from infected cells” value in experiment [2] is “inhibition of the formation of infectious virus from HIV-1 infected cells”; in experiment [2] (listed as 624151) it was “prevention of the formation of infectious virus from previously infected cells”. Further, the minimal effective concentration in experiment [2] (Human immunodeficiency virus 1, 48 h, TNF-α stimulated U1 cells, read-out: concentration (as low as) at which infectious titer of released virions was effectively reduced) was 3 µM. Further, the “levels of intracellular or extracellular viral p24” value in experiment [2] (TNF-α stimulated U1 cells) is “did not dramatically reduce the levels of intracellular or extracellular viral p24”. Also, the “effect of increasing the MOI on activity” value with HIV-1RF (in words) is reported as “relatively resistant to the effects of increasing the viral MOI”. Further, the “Pr55^gag processing to p41, p24, p9 and p7 proteins” value in the experiment with Pr55^gag is “prevents processing of precursor proteins to mature viral proteins”; with Pr55^gag (listed as 624151), “decrease in Pr55^gag processing to the p41, p24, p9 and p7 proteins”.

Values taken from patent US6046228A, “Anti-viral pharmaceutical compositions containing saturated 1,2-dithiaheterocyclic compounds and uses thereof” (priority 1999, dated 2000).
